Assays:
ErbB2 V777L = ErbB2 V777L (Homo sapiens (Human), UniProt P04626, V777L); assay: ErbB enzyme assay (CisBio HTRF-KinEASE-TK), ErbB2 V777L; format: biochemical
In short: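 HTRF KinEASE-TK tyrosine-kinase read-out of substrate phosphorylation after a final 1 h at ambient temperature, from the 655/620 nm emission ratio.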

EGFR WT = EGFR WT (Homo sapiens (Human), UniProt P00533); assay: ErbB enzyme assay (CisBio HTRF-KinEASE-TK), EGFR WT; format: biochemical; settings: ATP at Km (25 μM), 1 h incubation
In short: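 Three-fold DMSO serial dilutions were added to kinase reactions and incubated 1 h at room temperature. Quench used 62.5 nM Sa-XL665 plus 0.25×TK-Ab-Cryptate in detection buffer, followed by another 1 h. Substrate phosphorylation was then measured by dual-wavelength HTRF.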

EGFR WT, sequence (P00533 25-1210): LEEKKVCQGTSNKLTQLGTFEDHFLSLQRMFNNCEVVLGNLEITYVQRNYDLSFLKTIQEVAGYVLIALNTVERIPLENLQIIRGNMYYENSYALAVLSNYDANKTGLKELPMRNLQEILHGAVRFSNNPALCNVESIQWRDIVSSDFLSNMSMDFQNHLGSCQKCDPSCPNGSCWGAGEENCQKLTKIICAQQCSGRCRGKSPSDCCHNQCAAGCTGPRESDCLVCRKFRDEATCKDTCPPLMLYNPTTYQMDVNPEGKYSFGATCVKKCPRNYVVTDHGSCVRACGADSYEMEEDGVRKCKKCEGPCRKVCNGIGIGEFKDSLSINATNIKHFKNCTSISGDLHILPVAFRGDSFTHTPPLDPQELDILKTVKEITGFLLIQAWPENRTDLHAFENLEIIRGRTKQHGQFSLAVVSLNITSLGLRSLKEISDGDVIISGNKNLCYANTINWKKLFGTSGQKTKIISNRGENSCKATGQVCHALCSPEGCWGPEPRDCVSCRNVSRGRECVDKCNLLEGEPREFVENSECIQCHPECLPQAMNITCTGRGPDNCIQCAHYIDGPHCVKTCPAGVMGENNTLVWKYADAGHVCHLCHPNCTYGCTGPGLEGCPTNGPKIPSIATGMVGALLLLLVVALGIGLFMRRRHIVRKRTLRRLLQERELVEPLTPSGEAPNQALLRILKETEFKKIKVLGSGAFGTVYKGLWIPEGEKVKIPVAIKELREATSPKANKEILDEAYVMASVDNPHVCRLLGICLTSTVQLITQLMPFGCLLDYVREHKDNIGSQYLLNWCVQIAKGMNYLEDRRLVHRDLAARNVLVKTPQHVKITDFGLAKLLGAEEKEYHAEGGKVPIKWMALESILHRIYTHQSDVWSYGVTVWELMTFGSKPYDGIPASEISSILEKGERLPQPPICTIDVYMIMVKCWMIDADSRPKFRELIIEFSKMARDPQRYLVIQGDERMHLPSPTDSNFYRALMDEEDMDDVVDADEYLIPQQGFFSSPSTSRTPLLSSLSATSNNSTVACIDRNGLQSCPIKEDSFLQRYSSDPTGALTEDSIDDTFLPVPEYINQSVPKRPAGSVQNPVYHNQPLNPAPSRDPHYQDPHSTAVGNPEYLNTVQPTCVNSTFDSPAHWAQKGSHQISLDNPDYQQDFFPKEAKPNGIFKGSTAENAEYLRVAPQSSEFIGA
ErbB2 V777L, sequence (P04626 23-1255 V777L): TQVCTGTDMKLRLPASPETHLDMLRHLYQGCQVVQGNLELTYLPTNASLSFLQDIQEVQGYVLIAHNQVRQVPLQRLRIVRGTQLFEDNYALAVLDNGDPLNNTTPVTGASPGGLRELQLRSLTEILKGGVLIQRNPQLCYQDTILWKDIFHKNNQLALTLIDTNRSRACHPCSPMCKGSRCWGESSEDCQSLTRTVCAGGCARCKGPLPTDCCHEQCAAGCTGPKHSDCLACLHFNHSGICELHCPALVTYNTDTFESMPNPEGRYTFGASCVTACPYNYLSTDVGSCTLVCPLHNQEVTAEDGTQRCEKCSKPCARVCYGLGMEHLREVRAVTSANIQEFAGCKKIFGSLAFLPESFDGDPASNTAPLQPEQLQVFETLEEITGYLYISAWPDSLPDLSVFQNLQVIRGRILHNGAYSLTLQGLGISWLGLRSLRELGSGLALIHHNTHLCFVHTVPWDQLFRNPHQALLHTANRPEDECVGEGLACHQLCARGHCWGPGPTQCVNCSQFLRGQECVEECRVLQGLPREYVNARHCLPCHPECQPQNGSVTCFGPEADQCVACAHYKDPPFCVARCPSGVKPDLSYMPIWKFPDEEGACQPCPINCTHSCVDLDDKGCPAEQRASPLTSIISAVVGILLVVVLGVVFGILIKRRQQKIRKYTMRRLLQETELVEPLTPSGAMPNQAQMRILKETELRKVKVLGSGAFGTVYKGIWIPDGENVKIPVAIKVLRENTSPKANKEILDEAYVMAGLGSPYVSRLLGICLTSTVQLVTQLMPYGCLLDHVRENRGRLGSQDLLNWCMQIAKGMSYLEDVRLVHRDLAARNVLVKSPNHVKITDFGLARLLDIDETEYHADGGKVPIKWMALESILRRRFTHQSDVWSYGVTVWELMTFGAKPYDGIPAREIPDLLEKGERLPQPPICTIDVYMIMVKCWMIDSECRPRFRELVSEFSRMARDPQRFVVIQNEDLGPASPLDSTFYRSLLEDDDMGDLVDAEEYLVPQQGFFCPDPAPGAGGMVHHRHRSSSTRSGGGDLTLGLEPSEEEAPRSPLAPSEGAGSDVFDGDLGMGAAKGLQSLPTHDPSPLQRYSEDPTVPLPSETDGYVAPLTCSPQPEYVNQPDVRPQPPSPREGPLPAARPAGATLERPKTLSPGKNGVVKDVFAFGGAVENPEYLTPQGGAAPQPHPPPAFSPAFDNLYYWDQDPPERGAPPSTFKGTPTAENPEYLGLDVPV

| Structure (SMILES) | IC50 (ErbB2 V777L) | IC50 (EGFR WT) |
| --- | --- | --- |
| C=CC(=O)N[C@H]1CCCCN(c2ncc3ncnc(Nc4ccc(Oc5ccc6c(c5)nnn6C)c(C)c4F)c3n2)C1 [Compound 173, (S)-N-(1-(8-((2-fluoro-3-methyl-4-((1-methyl-1H-benzo[d][1,2,3]triazol-5-yl)oxy)phenyl)amino)pyrimido[5,4-d]pyrimidin-2-yl)azepan-3-yl)acrylamide] | 0.05 to 0.1 µM | 0.1 to 0.5 µM |
| C=CC(=O)N1CCN(c2ncc3ncnc(Nc4ccc(Oc5cc6nnn(C)c6c(F)c5C)c(C)c4)c3n2)C[C@H]1C [Compound 174, (R)-1-(4-(8-((4-((7-fluoro-1,6-dimethyl-1H-benzo[d][1,2,3]triazol-5-yl)oxy)-3-methylphenyl)amino)pyrimido[5,4-d]pyrimidin-2-yl)-2-methylpiperazin-1-yl)prop-2-en-1-one] | 0.1 to 0.5 µM | ≥ 1 µM |
| C=CC(=O)N1C[C@@H]2C[C@H]1CN(c1ncc3ncnc(Nc4ccc(Oc5cc(F)c6c(c5)ncn6C)c(C)c4F)c3n1)C2 [Compound 175, 1-((1R,5S)-3-(8-((2-fluoro-4-((7-fluoro-1-methyl-1H-benzo[d]imidazol-5-y1)oxy)-3-methylphenyl)amino)pyrimido[5,4-d]pyrimidin-2-yl)-3,6-diazabicyclo[3.2.1]octan-6-yl)prop-2-en-1-one] | 0.1 to 0.5 µM | 0.05 to 0.1 µM |
| C=CC(=O)N1CCN(c2ncc3ncnc(Nc4ccc(Oc5cc6nnn(C)c6c(F)c5C)c(C)c4F)c3n2)C[C@H]1C [Compound 176, (R)-1-(4-(8-((2-fluoro-4-((7-fluoro-1,6-dimethyl-1H-benzo[d][1,2,3]triazol-5-yl)oxy)-3-methylphenyl)amino)pyrimido[5,4-d]pyrimidin-2-yl)-2-methylpiperazin-1-yl)prop-2-en-1-one] | 0.5 to 1 µM | 0.1 to 0.5 µM |
| C=CC(=O)N1CCN(c2ncc3ncnc(Nc4ccc(Oc5cnc6c(c5)ncn6C(F)F)c(C)c4F)c3n2)C[C@H]1C [Compound 177, (R)-1-(4-(8-((4-((3-(difluoromethyl)-3H-imidazo[4,5-b]pyridin-6-yl)oxy)-2-fluoro-3-methylphenyl)amino)pyrimido[5,4-d]pyrimidin-2-y1)-2-methylpiperazin-1-yl)prop-2-en-1-one] | 0.1 to 0.5 µM | < 0.05 µM |
| C=CC(=O)N1CCN(c2ncc3ncnc(Nc4ccc(Oc5cc6nnn(C)c6c(C)c5F)c(C)c4F)c3n2)C[C@H]1C [Compound 180, (R)-1-(4-(8-((2-fluoro-4-((6-fluoro-1,7-dimethyl-1H-benzo[d][1,2,3]triazol-5-yl)oxy)-3-methylphenyl)amino)pyrimido[5,4-d]pyrimidin-2-y1)-2-methylpiperazin-1-yl)prop-2-en-1-one] | 0.05 to 0.1 µM | 0.05 to 0.1 µM |
| C=CC(=O)N1C[C@@H](C)N(c2ncc3ncnc(Nc4ccc(Oc5ccc6c(c5)nnn6C)c(C)c4)c3n2)C[C@H]1C [Compound 186, 1-((2R,5R)-2,5-dimethyl-4-(8-((3-methyl-4-((1-methyl-1H-benzo[d][1,2,3]triazol-5-yl)oxy)phenyl)amino)pyrimido[5,4-d]pyrimidin-2-yl)piperazin-1-yl)prop-2-en-1-one] | 0.1 to 0.5 µM | ≥ 1 µM |
| C=CC(=O)N1C[C@H](C)N(c2ncc3ncnc(Nc4ccc(Oc5ccc6c(c5)nnn6C)c(C)c4)c3n2)C[C@@H]1C [Compound 187, 1-((2S,5S)-2,5-dimethyl-4-(8-((3-methyl-4-((1-methyl-1H-benzo[d][1,2,3]triazol-5-yl)oxy)phenyl)amino)pyrimido[5,4-d]pyrimidin-2-yl)piperazin-1-yl)prop-2-en-1-one] | 0.05 to 0.1 µM | 0.1 to 0.5 µM |
| C=CC(=O)N1C[C@@H](C)N(c2ncc3ncnc(Nc4ccc(Oc5ccc6c(c5)nnn6C)c(C)c4)c3n2)C[C@@H]1C [Compound 188, 1-((2S,5R)-2,5-dimethyl-4-(8-((3-methyl-4-((1-methyl-1H-benzo[d][1,2,3]triazol-5-yl)oxy)phenyl)amino)pyrimido[5,4-d]pyrimidin-2-yl)piperazin-1-yl)prop-2-en-1-one] | 0.5 to 1 µM | ≥ 1 µM |
| C=CC(=O)N1CCN(c2ncc3ncnc(Nc4ccc(Oc5ccc6c(c5)nnn6C)c(C)c4)c3n2)[C@@H]2CC[C@H]21 [Compound 189, 1-((1R,6R)-5-(8-((3-methyl-4-((1-methyl-1H-benzo[d][1,2,3]triazol-5-yl)oxy)phenyl)amino)pyrimido[5,4-d]pyrimidin-2-y1)-2,5-diazabicyclo[4.2.0]octan-2-yl)prop-2-en-1-one] | 0.1 to 0.5 µM | 0.5 to 1 µM |
| C=CC(=O)N1CCN(c2ncc3ncnc(Nc4ccc(Oc5ccc6c(nnn6C)c5F)c(C)c4)c3n2)CC1 [Compound 191, 1-(4-(8-((4-((4-fluoro-1-methyl-1H-benzo[d][1,2,3]triazol-5-yl)oxy)-3-methylphenyl)amino)pyrimido[5,4-d]pyrimidin-2-yl)piperazin-1-yl)prop-2-en-1-one] | 0.05 to 0.1 µM | 0.05 to 0.1 µM |
| C=CC(=O)N1CCN(c2ncc3ncnc(Nc4ccc(Oc5ccc6c(c5)nnn6C)c(C)c4)c3n2)C[C@H]1C1CC1 [Compound 196, (R)-1-(2-cyclopropyl-4-(8-((3-methyl-4-((1-methyl-1H-benzo[d][1,2,3]triazol-5-yl)oxy)phenyl)amino)pyrimido[5,4-d]pyrimidin-2-yl)piperazin-1-yl)prop-2-en-1-one] | 0.1 to 0.5 µM | 0.5 to 1 µM |

Next, values leading:

| IC50 (ErbB2 V777L) | IC50 (EGFR WT) | Structure (SMILES) |
| --- | --- | --- |
| ≥ 1 µM | ≥ 1 µM | C=CC(=O)N[C@H]1[C@@H]2CC[C@H]1CN(c1ncc3ncnc(Nc4ccc(Oc5ccc6c(c5)nnn6C)c(C)c4)c3n1)C2 [Compound 205, N-((1R,5S,8r)-3-(8-((3-methyl-4-((1-methyl-1H-benzo[d][1,2,3]triazol-5-yl)oxy)phenyl)amino)pyrimido[5,4-d]pyrimidin-2-yl)-3-azabicyclo[3.2.1]octan-8-yl)acrylamide] |
| 0.05 to 0.1 µM | 0.1 to 0.5 µM | C=CC(=O)N[C@@H]1[C@@H]2CC[C@H]1CN(c1ncc3ncnc(Nc4ccc(Oc5ccc6c(c5)nnn6C)c(C)c4)c3n1)C2 [Compound 206, N-((1R,5S,8s)-3-(8-((3-methyl-4-((1-methyl-1H-benzo[d][1,2,3]triazol-5-yl)oxy)phenyl)amino)pyrimido[5,4-d]pyrimidin-2-yl)-3-azabicyclo[3.2.1]octan-8-yl)acrylamide] |
| 0.05 to 0.1 µM | 0.05 to 0.1 µM | C=C(F)C(=O)N1CC(F)(F)C12CN(c1ncc3ncnc(Nc4ccc(Oc5ccc6c(c5)nnn6C)c(C)c4)c3n1)C2 [Compound 209, 1-(3,3-difluoro-6-(8-((3-methyl-4-((1-methyl-1H-benzo[d][1,2,3]triazol-5-yl)oxy)phenyl)amino)pyrimido [5,4-d]pyrimidin-2-yl)-1,6-diazaspiro[3.3]heptan-1-yl)-2-fluoroprop-2-en-1-one] |
| 0.05 to 0.1 µM | 0.1 to 0.5 µM | Cc1cc(Nc2ncnc3cnc(N4CCN(C(=O)/C=C/CF)CC4)nc23)ccc1Oc1ccc2c(c1)nnn2C [Compound 210, (E)-4-fluoro-1-(4-(8-((3-methyl-4-((1-methyl-1H-benzo[d][1,2,3]triazol-5-yl)oxy)phenyl)amino)pyrimido [5,4-d]pyrimidin-2-yl)piperazin-1-yl)but-2-en-1-one] |
| 0.05 to 0.1 µM | 0.1 to 0.5 µM | C=C(COC)C(=O)NC1CCN(c2ncc3ncnc(Nc4ccc(Oc5ccc6c(c5)nnn6C)c(C)c4)c3n2)CC1 [Compound 212, 2-(methoxymethyl)-N-(1-(8-((3-methyl-4-((1-methyl-1H-benzo[d][1,2,3]triazol-5-yl)oxy)phenyl)amino)pyrimido [5,4-d]pyrimidin-2-yl)piperidin-4-yl)acrylamide] |
| 0.1 to 0.5 µM | 0.5 to 1 µM | C=C(COC)C(=O)N1CC(F)(F)C12CN(c1ncc3ncnc(Nc4ccc(Oc5ccc6c(c5)nnn6C)c(C)c4)c3n1)C2 [Compound 214, 1-(3,3-difluoro-6-(8-((3-methyl-4-((1-methyl-1H-benzo[d][1,2,3]triazol-5-yl)oxy)phenyl)amino)pyrimido [5,4-d]pyrimidin-2-yl)-1,6-diazaspiro[3.3]heptan-1-yl)-2-(methoxymethyl) prop-2-en-1-one] |
| 0.05 to 0.1 µM | < 0.05 µM | C=CC(=O)N1CC(F)(F)C12CN(c1ncc3ncnc(Nc4ccc(Oc5ccc6c(c5)nnn6C)c(C)c4)c3n1)C2 [Compound 221, 1-(3,3-difluoro-6-(8-((3-methyl-4-((1-methyl-1H-benzo[d][1,2,3]triazol-5-yl)oxy)phenyl)amino)pyrimido[5,4-d]pyrimidin-2-yl)-1,6-diazaspiro[3.3]heptan-1-yl)prop-2-en-1-one] |
| 0.05 to 0.1 µM | 0.05 to 0.1 µM | C=CC(=O)N1CCC12CCN(c1ncc3ncnc(Nc4ccc(Oc5ccc6c(c5)nnn6C)c(C)c4)c3n1)C2 (centres unmarked) [Compound 222, 1-(6-(8-((3-methyl-4-((1-methyl-1H-benzo[d][1,2,3]triazol-5-yl)oxy)phenyl)amino)pyrimido[5,4-d]pyrimidin-2-yl)-1,6-diazaspiro[3.4]octan-1-yl)prop-2-en-1-one] |
| 0.1 to 0.5 µM | 0.5 to 1 µM | C=CC(=O)N1CCC[C@@H](N(C)c2ncc3ncnc(Nc4ccc(Oc5ccc6c(c5)nnn6C)c(C)c4)c3n2)C1 [Compound 223, (R)-1-(3-(methyl(8-((3-methyl-4-((1-methyl-1H-benzo[d][1,2,3]triazol-5-yl)oxy)phenyl)amino)pyrimido[5,4-d]pyrimidin-2-yl)amino)piperidin-1-yl)prop-2-en-1-one] |
| 0.05 to 0.1 µM | 0.1 to 0.5 µM | C=CC(=O)N1CCC[C@H](N(C)c2ncc3ncnc(Nc4ccc(Oc5ccc6c(c5)nnn6C)c(C)c4)c3n2)C1 [Compound 224, (S)-1-(3-(methyl(8-((3-methyl-4-((1-methyl-1H-benzo[d][1,2,3]triazol-5-yl)oxy)phenyl)amino)pyrimido[5,4-d]pyrimidin-2-yl)amino)piperidin-1-yl)prop-2-en-1-one] |

Reference: patent US20250129078A1, “ERBB2 INHIBITORS” (Cogent Biosciences, Inc., priority 2023, published 2025)
